We go through 21 compounds from patent US11324787B2, “Analytical methods and arrays for use in the same” (SENZAGEN AB, priority 2017, dated 2022).

For series [1] the following is noted: cited from earlier work; for binary class: sens / non-sens; for true CLP: test set.
Series [2] relates to myeloid cell line derived from MUTZ-3. The series can be described thus: GARD random forest model predicting CLP categories (52 transcripts, Example A). As to conditions: test set; for GARD predicted CLP: majority voting across replicates; for predicted CLP: separate replicates.
The conditions of series [3]: cited from earlier work; for binary class (HP*): based on human potency [41] where available, otherwise according to CLP; for HP: human potency, chemicals of random forest training and test set; for Human potency [41]: test set.
Series [4] concerns myeloid cell line derived from MUTZ-3. The series can be described thus: Cytotoxicity / viability by flow cytometry (propidium iodide), 24 hours exposure. As to conditions: yes/no; MUTZ-3 derived cells. In general terms: In flow cytometry, cells or beads pass a laser one at a time.
Series [5] has the same test system. The series can be described thus: GARD binary classification (SVM on GARD prediction signature, 200 transcripts). As to conditions: for GARD binary prediction: SVM, median calibrated decision value of replicates >0 = sensitizer.
Setting [6] is: chemicals of random forest training and test set.
The mark [7] stands for this setting: CLP annotation of 37 novel chemicals.
The mark [8] stands for this setting: Table 9, chemicals training set.

Where a name gives a salt, the structure may show the parent alone. Read-outs that look alike come from different tables or passages of the source.

`CCCCBr` [1-brombutane, 1-bromobutane]: the CLP entry in series [1] (Table 10, chemicals test set 1) was “no cat”; in series [1] (setting [6]), “no cat”. Also, the binary class result in series [1] (setting [6]) was “non-sens”. Further, the “true CLP” value in series [1] (per replicate line) and in series [1] was “no cat” each time. The “GARD predicted CLP” value in series [2] was “no cat”. Moreover, the “predicted CLP” value in series [2] is reported as “no cat”. In series [3], the “binary class (HP*)” value is “NS (5-6 = NS)”.

In the case of `Cc1cccc(O)c1O` [3-methylcatechol, 3-Methylcatechol], the CLP in series [1] (setting [7]), in series [1] (setting [8]) and in series [1] (setting [6]) was 1A throughout. Moreover, in series [1] (setting [6]), the binary class result was “sens”. In addition, the cytotox entry in series [4] is “yes”. Besides, the GARD binary prediction entry in series [5] is on record as “S”. Moreover, the “binary class (HP*)” value in series [3] is given as “S (HP 1-4 = S)”.

With `CC(C)C1=CC2=CC[C@@H]3[C@](C)(CCC[C@@]3(C)C(=O)O)[C@H]2CC1` [abietic acid], in series [1] (setting [7]), the CLP is recorded as 1B. The CLP in series [1] (setting [8]) is on record as 1B. In series [1] (setting [6]), the CLP is recorded as 1B and the binary class entry is listed as “sens”. The cytotox result in series [4] is “no”. The GARD binary prediction result in series [5] was “S”. In series [3], the “binary class (HP*)” value was “S (HP 1-4 = S)” and the HP is recorded as 3.

Turning to `CC=Cc1ccc(OC)cc1` [anethole], in series [2], the “GARD predicted CLP” value is recorded as 1B and the “predicted CLP” value is 1B. Further, in series [3], the “binary class (HP*)” value was “NS (5-6 = NS)”, the HP was 5 and the “Human potency [41]” value is listed as 5.

With `CCOC(=O)c1ccc(N)cc1` [benzocaine], the CLP in series [1] (setting [7]) was 1B. Besides, in series [1] (setting [6]), the CLP is 1B and the binary class result is recorded as “sens”. Further, in series [4], the cytotox entry was “no”. Moreover, the “GARD binary classification relative to cut-off defined by benchmark samples” value in series [5] (misclassified sensitizing chemicals) is “close to the cut-off”. In series [3], the “binary class (HP*)” value is on record as “S (HP 1-4 = S)” and the HP was 4.

With `O=C(O)c1ccccc1` [benzoic acid], the CLP entry in series [1] (Table 10, chemicals test set 1) was “no cat”. Also, in series [1] (setting [6]), the CLP result is “no cat” and the binary class result is reported as “non-sens”. For the same compound, in series [1] (per replicate line), the “true CLP” value is given as “no cat”. For the same compound, in series [1], the “true CLP” value is recorded as “no cat”. Further, in series [2], the “GARD predicted CLP” value was “no cat” and the “predicted CLP” value is listed as “no cat”. Moreover, the “binary class (HP*)” value in series [3] is “NS (5-6 = NS)”.

On to `OCc1ccccc1` [benzyl alcohol], for which the CLP result in series [1] (setting [8]) is “no cat”. Also, in series [1] (setting [6]), the CLP result is given as “no cat” and the binary class entry was “non-sens”. Moreover, the cytotox entry in series [4] was “no”. Moreover, the “binary class (HP*)” value in series [3] is on record as “NS (5-6 = NS)”.

`CN(C)CCCN1c2ccccc2Sc2ccc(Cl)cc21` [chlorpromazine]: the CLP in series [1] (setting [7]) is given as 1A. For the same compound, the CLP in series [1] (setting [8]) is reported as 1A. In series [1] (setting [6]), the CLP is on record as 1A and the binary class entry is on record as “sens”. In addition, the cytotox entry in series [4] was “yes”. The GARD binary prediction entry in series [5] is “S”. In series [3], the “binary class (HP*)” value is “S (HP 1-4 = S)” and the HP was 3.

Consider `CC(C)=CCCC(C)=CC=O` [citral], for which the CLP in series [1] (setting [7]) is on record as 1B. For the same compound, the CLP in series [1] (setting [8]) is 1B. Also, in series [1] (setting [6]), the CLP was 1B and the binary class entry is given as “sens”. Further, the cytotox entry in series [4] is given as “yes”. In addition, in series [5], the GARD binary prediction entry is “S”. For the same compound, in series [3], the “binary class (HP*)” value is “S (HP 1-4 = S)” and the HP was 3.

As for `O=C(O)CC(O)(CC(=O)O)C(=O)O` [citric acid], the cytotox entry in series [4] is “no”.

For the compound `CC(C)=CCCC(C)CCO` (stereo not drawn) [citronellol], the CLP in series [1] (setting [7]) is on record as 1B. Besides, the CLP in series [1] (setting [8]) was 1B. In addition, in series [1] (setting [6]), the CLP was 1B and the binary class entry is recorded as “sens”. Besides, the cytotox result in series [4] is “no”. The GARD binary prediction result in series [5] is on record as “S”. In series [3], the “binary class (HP*)” value is “NS (5-6 = NS)” and the HP is recorded as 5.

On to `OCCNCCO` [diethanolamine], for which, in series [1] (setting [7]), the CLP was 1B. Moreover, in series [1] (setting [8]), the CLP is reported as 1B. In addition, in series [1] (setting [6]), the CLP is reported as 1B and the binary class result is “sens”. In addition, in series [4], the cytotox entry was “no”. Moreover, in series [3], the “binary class (HP*)” value was “NS (5-6 = NS)” and the HP is reported as 5.

Turning to `CCOC(=O)/C=C\C(=O)OCC` [diethyl maleate], in series [1] (Table 10, chemicals test set 1), the CLP was 1B. For the same compound, in series [1] (setting [6]), the CLP is reported as 1B and the binary class result was “sens”. The “true CLP” value in series [1] (per replicate line) is 1B. For the same compound, the “true CLP” value in series [1] is 1B. Besides, in series [2], the “GARD predicted CLP” value is recorded as 1A and the “predicted CLP” value was 1A. In addition, in series [3], the HP is 2 and the “Human potency [41]” value is listed as 2.

With `CCOC(=O)c1ccccc1C(=O)OCC` [diethyl phthalate], the CLP result in series [1] (Table 10, chemicals test set 1) is “no cat”. In addition, in series [1] (setting [6]), the CLP entry was “no cat” and the binary class result was “non-sens”. For the same compound, the “true CLP” value in series [1] (per replicate line) was “no cat”. Further, in series [1], the “true CLP” value is “no cat”. In series [2], the “GARD predicted CLP” value was “no cat” and the “predicted CLP” value was “no cat”. In addition, the “SVM DV” value in series [5] (Table 8 chemical list, GARD SVM decision value) is −2.15. For the same compound, in series [3], the HP was 6.

Turning to `CCCCCCOC(=O)c1ccccc1O` [hexyl salicylate], the CLP in series [1] (setting [7]), in series [1] (setting [8]) and in series [1] (setting [6]) was 1A each time. The binary class result in series [1] (setting [6]) is “sens”. The cytotox entry in series [4] was “yes”. In addition, the GARD binary prediction entry in series [5] is listed as “S”. Also, in series [3], the “binary class (HP*)” value is recorded as “S (HP 1-4 = S)”. Besides, in series [3], the HP is reported as 4.

With `CCCCCCCCCCCCCC(=O)OC(C)C` [isopropyl myristate], in series [1] (setting [7]), the CLP was 1B. Moreover, the CLP in series [1] (setting [8]) is reported as 1B. Also, in series [1] (setting [6]), the CLP is 1B and the binary class result was “sens”. Further, in series [4], the cytotox entry is reported as “no”. For the same compound, in series [3], the “binary class (HP*)” value is “NS (5-6 = NS)” and the HP is listed as 5.

With `CCCCCC#CC(=O)OC` [methyl heptine carbonate], in series [1] (setting [7]), the CLP is 1A. For the same compound, in series [1] (setting [8]), the CLP was 1A. Also, in series [1] (setting [6]), the CLP is listed as 1A and the binary class entry is reported as “sens”. For the same compound, in series [4], the cytotox entry was “yes”. Moreover, the GARD binary prediction result in series [5] is given as “S”. Also, in series [3], the “binary class (HP*)” value was “S (HP 1-4 = S)” and the HP is 2.

As for `O=C1C=CC(=O)C=C1` [p-benzochinone, p-benzoquinone], in series [2], the “GARD predicted CLP” value is 1A and the “predicted CLP” value is on record as 1A. In addition, the cytotox result in series [4] is recorded as “yes”.

For `Oc1c(Cl)c(Cl)c(Cl)c(Cl)c1Cl` [pentachlorophenol], the CLP in series [1] (setting [7]), in series [1] (setting [8]) and in series [1] (setting [6]) was 1B throughout. In series [1] (setting [6]), the binary class entry was “sens”. In addition, in series [4], the cytotox entry was “no”. Besides, the “binary class (HP*)” value in series [3] is recorded as “NS (5-6 = NS)”. Further, the HP in series [3] is 5.

Take `O=C(O)C(O)C(O)C(=O)O` (stereo not drawn) [tartaric acid]: the cytotox result in series [4] is recorded as “no”.

In the case of dextran, the CLP entry in series [1] (setting [8]) was “no cat”. In series [1] (setting [6]), the CLP result is recorded as “no cat” and the binary class result is given as “non-sens”. Besides, in series [4], the cytotox entry was “no”. Also, in series [3], the “binary class (HP*)” value was “NS (5-6 = NS)” and the HP was 6.
